Usually MIC stands for the lowest concentration found to suppress growth.

In brackets after ≈: the same amount, converted by molar mass. Activity calls are given as the source filed them. The calls are words filed in the database; no cut-off is given here. Residues, ends and D or L forms follow the SMILES beside them. Some results are limits rather than exact numbers.

Seven compounds from ChEMBL document CHEMBL4673388, “Enhancing Antimicrobial Peptide Potency through Multivalent Presentation on Coiled-Coil Nanofibrils” (ACS Med Chem Lett, 2021) can be followed below.

Series [1] has as its system Staphylococcus aureus. The series can be described thus: Antibacterial activity against methicillin-resistant Staphylococcus aureus ATCC 43300 assessed as inhibition of bacterial growth incubated for 16 to 20 hrs by microdilution method. Type of series: functional. Conditions: time 16-20 hrs. (Dilution methods test growth across graded concentrations, often in twofold steps.)

The subject of series [2] is Pseudomonas aeruginosa. The experiment in a line: Antibacterial activity against Pseudomonas aeruginosa ATCC 15442 assessed as inhibition of bacterial growth incubated for 16 to 20 hrs by microdilution method. Type of series: functional. Conditions: time 16-20 hrs.
Series [3] has as its system Staphylococcus aureus. The experiment in a line: Antibacterial activity against Staphylococcus aureus ATCC 25923 assessed as inhibition of bacterial growth incubated for 16 to 20 hrs by microdilution method. Type of series: functional. Conditions: time 16-20 hrs.
The test system of series [4] is Staphylococcus aureus. The experiment in a line: Antibacterial activity against methicillin-resistant Staphylococcus aureus ATCC 43300 assessed as inhibition of bacterial growth incubated for 16 to 20 hrs compound conjugated on alpha-helical coiled-coil FF03 peptide by microdilution method. The class given is functional. Conditions: time 16-20 hrs.
Series [5] concerns Escherichia coli. The experiment in a line: Antibacterial activity against Escherichia coli ATCC 25922 assessed as inhibition of bacterial growth incubated for 16 to 20 hrs compound conjugated on alpha-helical coiled-coil FF03 peptide by microdilution method. The class given is functional. Conditions: time 16-20 hrs.
In series [6] the test system is Staphylococcus aureus. The experiment in a line: Antibacterial activity against Staphylococcus aureus ATCC 25923 assessed as inhibition of bacterial growth incubated for 16 to 20 hrs compound conjugated on alpha-helical coiled-coil FF03 peptide by microdilution method. The class given is functional. Conditions: time 16-20 hrs.
The nature of series [7]: Hemolytic activity in human red blood cells at 100 ug/ml incubated for 45 mins compound conjugated on alpha-helical colied-coil FF03 peptide. Conditions: red blood cells (erythrocytes), at 100 µg/mL, read-out: Activity. Type of series: ADME, cell-based, Erythrocyte.
The test system of series [8] is Staphylococcus aureus. The experiment in a line: Bactericidal activity against methicillin-resistant Staphylococcus aureus ATCC 43300 assessed as reduction in bacterial growth at MIC compound conjugated on alpha-helical coiled-coil FF03 peptide measured within 5 hrs by time kill assay. Type of series: functional, organism-based. Conditions: time hrs <=5.
The nature of series [9]: Hemolytic activity in human red blood cells at 100 ug/ml incubated for 45 mins. Type of series: ADME, cell-based, Erythrocyte. Conditions: red blood cells (erythrocytes), at 100 µg/mL, read-out: Activity.
The subject of series [10] is MCF7. The experiment in a line: Cytotoxicity against human MCF7 cells up to 90 ug/ml measured after 48 hrs by CCK8 assay. Type of series: cell-based. Conditions: mcf7, 48 h, dose <=90 µg/ml. In general terms: Formazan colour is commonly taken as a measure of viable cells.
Series [11] relates to HEK293. The experiment in a line: Cytotoxicity against human HEK293 cells up to 90 ug/ml measured after 48 hrs by CCK8 assay. Conditions: hek293, 48 h, dose <=90 µg/ml. Type of series: cell-based.
The subject of series [12] is HEK293. The series can be described thus: Cytotoxicity against human HEK293 cells up to 90 ug/ml measured after 48 hrs compound conjugated on alpha-helical coiled-coil FF03 peptide by CCK8 assay. Type of series: cell-based. Conditions: hek293, 48 h, dose <=90 µg/ml.
In series [13] the test system is Pseudomonas aeruginosa. The series can be described thus: Antibacterial activity against Pseudomonas aeruginosa ATCC 15442 assessed as inhibition of bacterial growth incubated for 16 to 20 hrs compound conjugated on alpha-helical coiled-coil FF03 peptide by microdilution method. Conditions: time 16-20 hrs. Type of series: functional.
Series [14] relates to Staphylococcus aureus. The series can be described thus: Bactericidal activity against methicillin-resistant Staphylococcus aureus ATCC 43300 assessed as reduction in bacterial growth at MIC measured for 25 hrs by time kill assay. The class given is functional, organism-based.
The test system of series [15] is Escherichia coli. The experiment in a line: Antibacterial activity against Escherichia coli ATCC 25922 assessed as inhibition of bacterial growth incubated for 16 to 20 hrs by microdilution method. The class given is functional. Conditions: time 16-20 hrs.
The subject of series [16] is Cell membrane. The series can be described thus: Disruption of cell membrane in methicillin-resistant Staphylococcus aureus ATCC 43300 assessed as complete rupture of bacterial cell surface at 9 ug/ml incubated for 3 hrs by scanning electron microscopy. The class given is subcellular. Particulars: dose 9.0 µg/ml.
For series [17], the system named is MCF7. The experiment in a line: Cytotoxicity against human MCF7 cells up to 90 ug/ml measured after 48 hrs compound conjugated on alpha-helical coiled-coil FF03 peptide by CCK8 assay. Type of series: cell-based. Particulars: mcf7, 48 h, dose <=90 µg/ml.

As for `CC[C@H]1OC(=O)[C@H](C)[C@@H](O[C@H]2C[C@@](C)(OC)[C@@H](O)[C@H](C)O2)[C@H](C)[C@@H](O[C@@H]2O[C@H](C)C[C@H](N(C)C)[C@H]2O)[C@](C)(O)C[C@@H](C)C(=O)[C@H](C)[C@@H](O)[C@]1(C)O` [ERYTHROMYCIN], in [1], the MIC was greater than 128 µM.
With GENTAMICIN, the MIC in [2] turned out to be 1.63 µM.
Regarding `NC[C@H]1O[C@H](O[C@H]2[C@H](O)[C@@H](O[C@H]3O[C@H](CO)[C@@H](O)[C@H](N)[C@H]3O)[C@H](N)C[C@@H]2N)[C@H](O)[C@@H](O)[C@@H]1O` [KANAMYCIN], the MIC in series [1] was greater than 128 µM.
Take `CN[C@H](CC(C)C)C(=O)N[C@H]1C(=O)N[C@@H](CC(N)=O)C(=O)N[C@H]2C(=O)N[C@H]3C(=O)N[C@H](C(=O)N[C@H](C(=O)O)c4cc(O)cc(O)c4-c4cc3ccc4O)[C@H](O)c3ccc(c(Cl)c3)Oc3cc2cc(c3O[C@@H]2O[C@H](CO)[C@@H](O)[C@H](O)[C@H]2O[C@H]2C[C@](C)(N)[C@H](O)[C@H](C)O2)Oc2ccc(cc2Cl)[C@H]1O` [VANCOMYCIN]: the MIC was 0.5 µM (≈ 0.725 µg/mL) in series [1] and 1.38 µM (≈ 2 µg/mL) in series [3].
In the case of `COc1cc(Cc2cnc(N)nc2N)cc(OC)c1OC` [TRIMETHOPRIM], the MIC in series [1] was found to be 2 µM (≈ 0.581 µg/mL).
On to `CC(C)C[C@H](NC(=O)[C@@H](N)CCCNC(=N)N)C(=O)N1CCC[C@H]1C(=O)N[C@@H](Cc1c[nH]c2ccccc12)C(=O)N[C@@H](CCCNC(=N)N)C(=O)N[C@@H](Cc1c[nH]c2ccccc12)C(=O)N1CCC[C@H]1C(=O)N[C@@H](CCCNC(=N)N)C(=O)N[C@@H](CCCNC(=N)N)C(=O)N1CCC[C@H]1C(=O)N[C@@H](Cc1c[nH]c2ccccc12)C(=O)N[C@@H](CCCNC(=N)N)C(=O)N[C@@H](CCCNC(=N)N)C(=O)O` (H-RLPWRWPRRPWRR-OH), for which the MIC turned out to be 1.75 µM (≈ 3.36 µg/mL) in series [4]; 2.34 µM (≈ 4.49 µg/mL) in [5]; 0.97 µM (≈ 1.86 µg/mL) in series [6]; 130 µM (≈ 250 µg/mL) in series [1]; 1.36 µM (≈ 2.61 µg/mL) in [13]; 65.2 µM (≈ 125 µg/mL) in [3]. Also, the figures for the MIC in series [15] and in [2] were 130 µM (≈ 250 µg/mL) and 65.2 µM (≈ 125 µg/mL), respectively. Further, the hemolysis at 0.75 h, 100 ug/ml in [7] and in [9] was less than 15% each time. The outcome in series [8], in series [14] and in series [16] was Active. Further, the Activity result in [10], in [11], in series [12] and in series [17] was “Non-Toxic” in each case.
Consider `CC(=O)NC[C@H]1CN(c2ccc(N3CCOCC3)c(F)c2)C(=O)O1` [LINEZOLID], for which the MIC in [1] was 4 µM (≈ 1.35 µg/mL); in series [3], 1.5 µM (≈ 0.506 µg/mL).
